Results: patent US20050118564A1, “Methods and compositions for identification and therapeutic use of genes involved in vascular and proliferative diseases” (priority 2002, published 2005)

How the values were obtained:
Assay type in all cases: cell-based
[1] = test system: Human aortic endothelial cells (HAEC); assay: VCAM-1 expression in human aortic endothelial cells exposed to disease stimuli; settings: 16 hrs, 1 ng/ml TNF-α, 1 nM insulin, alone or together
Protocol: (§1) Human aortic endothelial cells (HAEC) were grown with culture medium (Basal medium from Clonetics) containing 0.2% albumin with or without 1 ng/ml TNF-α or 100 μg/ml glycated-human serum albumin (HAS) or 1 nM insulin for 16 hrs. Media were collected and the amounts of […] (DuoSet ELISA development kit—R&D Systems) and MCP-1 (Quantiline Human MCP-1 kit—R&D Systems) were measured. VCAM-1 expression was measured by incubating […] with a polyclonal goat anti-human VCAM-1 antibody (R&D Systems, 1:1000 dilution) followed by development with a rabbit anti-goat IgG-conjugated with horseradish peroxidase (HRP).

[2] = test system: Human aortic endothelial cells (HAEC); assay: MCP-1 secretion by human aortic endothelial cells exposed to disease stimuli (ELISA); settings: 16 hrs, stimulus alone: 1 ng/ml TNF-α, 1 nM insulin or 100 μg/ml glycated HSA
Protocol: as §1

[3] = test system: Smooth muscle cells; assay: MCP-1 secretion by smooth muscle cells exposed to disease stimuli; settings: 1 ng/ml TNF-α, 1 nM insulin, alone or together
[4] = test system: Smooth muscle cells; assay: IL-6 secretion by smooth muscle cells exposed to disease stimuli; settings: 1 ng/ml TNF-α, 1 nM insulin, alone or together
[5] = test system: Endothelial and smooth muscle cells grown together; assay: IL-6 expression in co-cultures of endothelial and smooth muscle cells; settings: endothelial and smooth muscle cells mixed (1:1, 1:2, 1:4) or layered; TNFα 1 ng/ml
Protocol: Endothelial and smooth muscle cells were grown together in culture media (Basal medium from Clonetics) containing 0.2% albumin. The cells had either nothing added, 1ng/ml TNFα, 1 nM insulin or TNFα and insulin. The media were collected and the amount of IL-6 and MCP-1 was measured.

With “Insulin: hormone used as vascular disease stimulus, 1 nM” the “effect on VCAM-1 gene expression” value [1] was “no effect”, the “increase in MCP-1 secretion” value [2] was 40% and the “induction of MCP-1 expression” value [3] was “only moderate induction”. The “induction of IL-6 expression” value [4] was “only moderate induction”.

For “interleukin-1: cytokine used as disease stimulus in co-cultures (FIG. 8: IL-1β)”, the “stimulus-induced IL-6 expression in co-culture versus cells cultured separately” value [5] was “neither interleukin-1 nor glycated albumin/advanced glycation end products (AGE) showed enhanced induction”.

TNF-α was tested, and the “effect on VCAM-1 gene expression” value [1] was 2.8 fold, the “stimulus-induced IL-6 expression in co-culture versus cells cultured separately” value [5] was “greatly enhanced” and the “increase in MCP-1 secretion” value [2] was “about 400%”. For the same substance, the “induction of MCP-1 expression” value [3] was “only moderate induction” and the “induction of IL-6 expression” value [4] was “only moderate induction”.
